Tested on: NCI-H196 complex spheroid growth, percent test/control
Test: Anticancer human tumor NCI-H196 cell line growth inhibition [AhR];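 also: seven days of drug exposure starting three days after plating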;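 as to viability, T/C: 100% = DMSO vehicle control wells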
Details: for IC50: curve of first compound; for viability, T/C: stronger effect = lower value; active = viability on the fitted dose curve at most 10% of control; inactive = the rest
Source text: Multicellular complex tumor spheroid response to aryl hydrocarbon receptor antagonists in combination with a variety of drugs and investigational agents in selected tumor cell lines
The current study was undertaken to assess response to aryl hydrocarbon receptor antagonists in combination with standard-of-care drugs and investigational agents in solid tumor complex spheroid models. Complex spheroids include a stromal component modeled by human endothelial cells (HUVEC) and fibroblasts modeled by human mesenchymal stem cells (MSCs). The concentration ranges selected for each drug and investigational agent were based upon clinically achievable concentrations if the clinical Cmax of the agent was known.
Compounds. The drugs and investigational agents: BAY 2416964 (NSC825713), GNF351 (NSC835774), CH-223191 (NSC835775), CPI-455 (NSC825282), aza-TdCyd (NSC777586), decitabine (NSC127716), belinostat (NSC758774), entinostat (NSC756642), pevonedistat (NSC761192), tazemetostat (NSC777109), talazoparib (NSC765396), olaparib (NSC753686), selinexor (NSC780203), nedisertib (M3814, NSC802822), bortezomib (NSC756655), venetoclax (NSC766270), doxorubicin (NSC123127), elimusertib (BAY189344, NSC800525), ceralasertib (AZD6738, NSC777638), TAK-243 (NSC785004), alisertib (NSC759677), etoposide (NSC141540), topotecan (NSC609699), eribulin (NSC707389), gemcitabine (NSC613327), carboplatin (NSC241240), cisplatin (NSC119875), and SN-38 (NSC673596) were obtained from the National Cancer Institute (NCI) Developmental Therapeutics Program Chemical Repository (32). The FDA-approved anticancer drug set is available from the Developmental Therapeutics Program at https://dtp.cancer.gov/organization/dscb/obtaining/available plates.htm. […] The stock solutions were prepared in dimethyl sulfoxide (DMSO, Sigma-Aldrich, St. Louis, MO, cat. D2650), except for the platinum compounds which were prepared in saline (Quality Biological, Gaithersburg, MD, cat. 114-055-101), at 800-fold the tested concentration and stored at -70 degrees C prior to their use. All drugs and investigational agents were tested over a range starting from a high concentration at or near the clinical Cmax and decreasing in half-log increments. If the clinical Cmax for an agent had not been determined, the highest concentration tested was 10 microM (Table 1).
Cell Culture. All cells were maintained in an incubator at 37 degrees C and 5% CO2 with 95% humidity. The PDC lines were cultured according to standard operating procedures established by the NCI PDMR (https://pdmr.cancer.gov). Briefly, all PDCs were thawed and cultured in Matrigel-coated flasks prepared with a working solution of 1X Ham's F-12 nutrient mix, without supplementation (Invitrogen, Waltham, MA, cat. 11765054), 100 U/mL penicillin-streptomycin (Invitrogen, cat. 15140122), and 2.5% Matrigel (Corning Inc., Corning, NY, cat. 354248) for the first three passages. All PDCs were cultured in complete DMEM/F-12 media containing advanced DMEM/F-12 (Invitrogen, cat. 12634028), 4.9% defined fetal bovine serum, heat inactivated (HyClone Laboratories Inc., Logan, UT, cat. SH30070.03HI), 389 ng/mL hydrocortisone (Sigma-Aldrich, cat. H4001), 9.7 ng/mL human EGF recombinant protein (Invitrogen, cat. PHG0313), 23.4 microg/mL adenine (Sigma-Aldrich, cat. A2786), 97.3 U/mL penicillin-streptomycin (Invitrogen, cat. 15140122), 1.9 mM L-glutamine (Invitrogen, cat. 25030081), and 9.7 microM Y-27632 dihydrochloride (Tocris Bioscience, Bristol, United Kingdom, cat. 1254). The PDCs were cultured in complete DMEM/F12 media without 10 microM Y-27632 dihydrochloride for at least two passages prior to the screen. The established cell lines NCI-H1341 and […] were cultured in DMEM/F-12, HEPES (Invitrogen, cat. 11330032), 5% defined fetal bovine serum (HyClone Laboratories Inc., cat. SH30070.03), ITS premix universal culture supplement [insulin (5 microg/mL), transferrin (5 microg/mL), and selenious acid (5 ng/mL)] […]

[1] = second compound 0.1 µM, first compound 0.0316 µM
[2] = second compound 0.1 µM, first compound 0.1 µM
[3] = second compound 0.316 µM, first compound 0.0316 µM
[4] = second compound 0.316 µM, first compound 0.1 µM
[5] = second compound 1 µM, first compound 0.0316 µM
[6] = second compound 1 µM, first compound 0.1 µM
[7] = second compound 3.16 µM, first compound 0.0316 µM
[8] = second compound 3.16 µM, first compound 0.1 µM
[9] = second compound 10 µM, first compound 0.0316 µM
[10] = second compound 10 µM, first compound 0.1 µM

CC1COCCN1c1cc(C2(S(C)(=N)=O)CC2)nc(-c2ccnc3[nH]ccc23)n1 (stereo not given) + Cc1cncc(-c2nc(NCCc3c[nH]c4ccccc34)c3ncn(C(C)C)c3n2)c1
> 10 µM: IC50 (second compound 0.1 µM) | IC50 (second compound 0.316 µM) | IC50 (second compound 1 µM) | IC50 (second compound 3.16 µM) | IC50 (second compound 10 µM)
inactive: viability, T/C [1] 104% | viability, T/C [2] 103% | viability, T/C (second compound 0.1 µM, first compound 0.316 µM) 91% | viability, T/C (second compound 0.1 µM, first compound 1 µM) 90.1% | viability, T/C (second compound 0.1 µM, first compound 3.16 µM) 88.9% | viability, T/C (second compound 0.1 µM, first compound 10 µM) 74.5% | viability, T/C [3] 100% | viability, T/C [4] 101% | viability, T/C (second compound 0.316 µM, first compound 0.316 µM) 101% | viability, T/C (second compound 0.316 µM, first compound 1 µM) 90.3% | viability, T/C (second compound 0.316 µM, first compound 3.16 µM) 85.3% | viability, T/C (second compound 0.316 µM, first compound 10 µM) 64.5% | viability, T/C [5] 98.5% | viability, T/C [6] 96% | viability, T/C (second compound 1 µM, first compound 0.316 µM) 99.8% | viability, T/C (second compound 1 µM, first compound 1 µM) 96.9% | viability, T/C (second compound 1 µM, first compound 3.16 µM) 86.9% | viability, T/C (second compound 1 µM, first compound 10 µM) 73.1% | viability, T/C [7] 108% | viability, T/C [8] 103% | viability, T/C (second compound 3.16 µM, first compound 0.316 µM) 104% | viability, T/C (second compound 3.16 µM, first compound 1 µM) 96% | viability, T/C (second compound 3.16 µM, first compound 3.16 µM) 98.8% | viability, T/C (second compound 3.16 µM, first compound 10 µM) 71.9% | viability, T/C [9] 77.3% | viability, T/C [10] 96.6% | viability, T/C (second compound 10 µM, first compound 0.316 µM) 87.6% | viability, T/C (second compound 10 µM, first compound 1 µM) 83.7% | viability, T/C (second compound 10 µM, first compound 3.16 µM) 79.3% | viability, T/C (second compound 10 µM, first compound 10 µM) 76.4%

CC[C@@]1(O)C(=O)OCc2c1cc1n(c2=O)Cc2cc3c(CN(C)C)c(O)ccc3nc2-1 + Cc1ccccc1N=Nc1ccc(NC(=O)c2ccnn2C)c(C)c1
> 0.1 µM: IC50 (second compound 0.1 µM) | IC50 (second compound 0.316 µM) | IC50 (second compound 1 µM) | IC50 (second compound 3.16 µM) | IC50 (second compound 10 µM)
inactive: viability, T/C (second compound 0.1 µM, first compound 0.000316 µM) 92.3% | viability, T/C (second compound 0.1 µM, first compound 0.001 µM) 111% | viability, T/C (second compound 0.1 µM, first compound 0.00316 µM) 93.5% | viability, T/C (second compound 0.1 µM, first compound 0.01 µM) 88.8% | viability, T/C [1] 112% | viability, T/C [2] 102% | viability, T/C (second compound 0.316 µM, first compound 0.000316 µM) 105% | viability, T/C (second compound 0.316 µM, first compound 0.001 µM) 103% | viability, T/C (second compound 0.316 µM, first compound 0.00316 µM) 98.6% | viability, T/C (second compound 0.316 µM, first compound 0.01 µM) 90.8% | viability, T/C [3] 93.6% | viability, T/C [4] 96.9% | viability, T/C (second compound 1 µM, first compound 0.000316 µM) 101% | viability, T/C (second compound 1 µM, first compound 0.001 µM) 112% | viability, T/C (second compound 1 µM, first compound 0.00316 µM) 98.3% | viability, T/C (second compound 1 µM, first compound 0.01 µM) 98.4% | viability, T/C [5] 99.7% | viability, T/C [6] 93.5% | viability, T/C (second compound 3.16 µM, first compound 0.000316 µM) 97.2% | viability, T/C (second compound 3.16 µM, first compound 0.001 µM) 101% | viability, T/C (second compound 3.16 µM, first compound 0.00316 µM) 109% | viability, T/C (second compound 3.16 µM, first compound 0.01 µM) 86.5% | viability, T/C [7] 91.1% | viability, T/C [8] 103% | viability, T/C (second compound 10 µM, first compound 0.000316 µM) 95% | viability, T/C (second compound 10 µM, first compound 0.001 µM) 97.7% | viability, T/C (second compound 10 µM, first compound 0.00316 µM) 89% | viability, T/C (second compound 10 µM, first compound 0.01 µM) 98.3% | viability, T/C [9] 102% | viability, T/C [10] 97%
